Experimental data: US20260053782A1, “TREATMENT REGIMENS FOR PARKINSON'S DISEASE” (BIAL - PORTELA & CA, S.A., priority 2022, published 2026)
One block for each compound: values may come before it.

Columns and labels:
[1] = system: patients suffering from early idiopathic Parkinson's disease; settings: addition of entacapone vs levodopa-only therapy; levodopa-naïve patients; cited from earlier work
[2] = cited from earlier work
[3] = Levodopa pharmacokinetics over 12 hours after 2 weeks of each LD/CD regimen with or without opicapone 50 mg (Phase II open-label trial); settings: human, in vivo
Method: The invention was discovered through a Phase IL, randomized, open-label trial evaluating the effect of opicapone (50 mg once-daily) on L-DOPA pharmacokinetics in Parkinson's disease patients with end-of-dose motor fluctuations taking different levodopa/carbidopa (LD/CD) sparing regimens (EudraCT number: 2020-003139-12).
Following screening, all subjects received an LD/CD dose and regimen of 100/25 mg QD5 (giving a total daily dose of 500/125 mg) fixed every 3 hours (from 8:00 to 20:00) for 14±2 days. This is the reference regimen. […]
The pharmacokinetic parameters assessed for each of the regimens included maximum observed plasma concentration (Cmax), time to achieve peak plasma levels (tmax), minimum observed plasma concentration (Cmin), plasma elimination half-life (t1/2), area under the curve (AUC) and fluctuation index (FI, as an expression of peak-to-trough fluctuation, Cmax and Cmin relative to average concentration Cavg).

[4] = system: Parkinson's disease patients with end-of-dose motor fluctuations; test: 12-hour patient ON/OFF monitoring registered by investigators on pharmacokinetics days; assay type: in vivo, human; settings: addition of opicapone; overall summary
From the text: Subjects were aged ≥30 years with a clinical diagnosis of idiopathic Parkinson's disease according to the United Kingdom Parkinson's Disease Society Brain Bank Clinical Diagnostic Criteria with disease severity stage 1-3 (according to modified Hoehn & Yahr staging) at ON and with end-of-dose motor fluctuations and signs of “wearing off”. Subjects were receiving treatment with levodopa/DDCI for at least 1 year with clear clinical improvement.
Clinical and safety/tolerability outcomes were also assessed as exploratory secondary outcomes. Clinical outcomes included ON and OFF-time assessed using patient-rated tools. The timing of ON and OFF state was registered (in real time) by the investigators during the matching 12-hour pharmacokinetic evaluation, as such applied on the pharmacokinetics days only), and patients also completed 24-hour Hauser ON/OFF diary charts (in 30 minute blocks) during the three days before each pharmacokinetic visit. […] In addition, the patient global impression of change (PGI-C) of opicapone 50 mg was evaluated at the end of the LD/CD 400/100 mg plus opicapone treatment, compared to before the start of the opicapone treatment. […]
All study assessments were evaluated for each LD/CD 400/100 mg plus 50 mg opicapone treatment regimen, compared to the LD/CD 500/125 mg without opicapone regimen.

SMILES: CCN(CC)C(=O)/C(C#N)=C/c1cc(O)c(O)c([N+](=O)[O-])c1 [entacapone]
frequency of dyskinesia [1]: increased frequency of dyskinesia

SMILES: N[C@@H](Cc1ccc(O)c(O)c1)C(=O)O [levodopa, L-3,4-dihydroxyphenylalanine]
half-life of oral levodopa [2]: 1 to 1.5 h

difference in levodopa tmax [3]: no impact
increase in levodopa t1/2 [3]: at least doubled
SMILES: Cc1c(Cl)c(C)[n+]([O-])c(Cl)c1-c1noc(-c2cc(O)c(O)c([N+](=O)[O-])c2)n1 [opicapone]
OFF time [4]: reduced OFF time
ON time [4]: increased ON time
